The values that follow come from US20080249066A1, “ANTIVIRAL COMPOUNDS AND COMPOSITIONS” (ARDEA BIOSCIENCES, INC., priority 2007, published 2008).

Common to all, as to format: cell-based
One data set relates to HIV-1 virus strain 20678. Kind of data set: Inhibition of infection of primary HIV-1 isolate 20678 in PBMCs (p24 antigen ELISA). The note with it: for EC50: Human immunodeficiency virus 1, 192 h, PBMC infected with virus 20678, p24 production at day 8; for Selectivity Index: GI50 (Diff.CD34+) divided by EC50 (PBMC), values fit AVG GI50 / EC50 of virus 20678. An excerpt: (§1) Monocyte/macrophages represent a major reservoir of HIV-1 in the infected human host. See L. Epstein et al., AIDS Res. 14, 447 (1984). However, these cells tend to be resistant to dideoxynucleoside prodrugs due to low levels of kinases needed to activate the prodrugs. See C. Pemo et al., J. Exp. Med. 168, 1111 (1984). To test the compounds described herein in these cells, PBMC cells infected for 7 days with two different virus strains (20678 and JR-FL) and under PHA stimulation for 4 days were treated with AZT, FOZ ISO 850, FOZ ISO 851, and FOZ MIX Na.
(§2) PBMC's were prepared as follows: 50 ml of whole human blood was centrifuged at 1000 g for 15 min, supernatant (plasma) removed, and cells resuspended in 80 ml PBS. 20 ml resuspended blood was then layered onto 25 ml Ficoll-Paque Plus (GE Healthcare, Uppsala Sweden), and centrifuged at 400 g for 30 min. The PBMC layer at the interface was collected, washed two times with 20 ml PBS, and resuspended in 20 ml RPMI/10% FBS.
(§3) Day 5-Stimulation of PBMC: PBMCs were grown in 50 ml of stimulation medium (RPMI, 15% FBS, 5 units/ml of IL-2, and 6 ug/ml of PHA) for 5 days.
(§4) Day 1-Infection of PBMC: PBMCs were counted with a hemacytometer. Stimulation medium was removed by centrifugation at RT, 1,500 rpm/5′ and cells resuspended in growth medium (RPMI, 15% of FBS, 10 units/ml of IL-2). PBMCs were infected with JR-FL or 20678 as follows: for one 96-well plate, 20 millions cells were infected with 1 ml of each virus (use 10 ul of virus and 200,000 cell per well) in a 4.5 ml-volume in a 50-ml conical tube. Cells were incubated for 3 hrs at 37 °C. with frequent shaking. Aliqouts of 50 ul of a 4× solution of the compounds to be tested were added to the 96-well plates. After 3 hr of incubation, infected cells were washed two times with PBS and one time with culture medium by spinning down the cells at 1500 rpm for 5 minutes at room temperature. After the last wash cells were resuspended in 15 ml of growth medium. 150 ul of cell suspension were delivered into each well. Cells were incubated for 7 days at 37 °C.
(§5) Day 5-Medium change: Cells were resuspended by pipetting and 100 ul of medium was removed. 100 ul of fresh medium was added with 1× compound. Cells were incubated for 3 more days at 37° C.
(§6) Day 8-p24 assay: At day 8 the p24 production was measured using the HIV-1 p24 Antigen ELISA (Zeptometrix) according to manufacturer instructions.
On the technique in general: An ELISA detects its analyte on a solid surface through an enzyme-linked reagent.

A further data set concerns HIV-1 virus strain JR-FL. Briefly: Inhibition of infection of primary HIV-1 isolate JR-FL in PBMCs (p24 antigen ELISA). The note with it: Human immunodeficiency virus 1, 192 h; PBMC infected with virus JR-FL, p24 production at day 8.
From the text: as §1, §2, §3, §4, §5, §6

The nature of data set [1]: Inhibition of cell growth (GI50) in Diff.CD34+ cells, 7-d. The note with it: Diff.CD34+ cells.
In a further data set the test system is Diff.CD34+. The description is as above.
Setting [2] is: 7-d, experiment of Aug. 6, 2007, concentration required for 50% inhibition of cell growth, read-out: GI50 (μM) Aug. 6, 2007 7-d.
Setting [3] is: 7-d, experiment of Aug. 13 2007, concentration required for 50% inhibition of cell growth, read-out: GI50 (μM Aug. 13 2007 7-d).
[4] abbreviates: average of the two 7-d experiments, read-out: AVG GI50.

Counter-ions that a name gives are not always drawn. Like-named read-outs stand apart in the source and are kept apart here.

By EC50 is commonly meant the concentration at which the effect is half-maximal. A low value points to a more potent agent. For orientation: GI50 means the concentration giving 50% growth inhibition. For the compound `CCCCCCCCCCCCSC[C@H](COP(=O)(O)OC[C@H]1O[C@@H](n2cc(C)c(=O)[nH]c2=O)C[C@@H]1N=[N+]=[N-])OCCCCCCCCCC` (mixture of isomers) [FOZ MIX Na, Phosphoric acid (2S,3S,5R)-3-azido-5-(5-methyl-2,4-dioxo-3,4-dihydro-2H-pyrimidin-1-yl)-tetrahydro-furan-2-ylmethyl ester (S)-2-decyloxy-3-dodecylsulfanyl-propyl ester sodium salt], the EC50 in the data set with HIV-1 virus strain 20678 is 1410 nM; in the data set with HIV-1 virus strain JR-FL, 1140 nM. Moreover, the results for the GI50 at 7 d in data set [1] (setting [2]), in data set [1] (setting [3]) and in data set [1] (setting [4]) were 1.5 µM, 2.2 µM and 1.83 µM, respectively.

With `CCCCCCCCCCCCSC[C@@H](COP(=O)(O)OC[C@H]1O[C@@H](n2cc(C)c(=O)[nH]c2=O)C[C@@H]1N=[N+]=[N-])OCCCCCCCCCC` [FOZ ISO 851, Phosphoric Acid (2S,3S,5R)-3-azido-5-(5-methyl-2,4-dioxo-3,4-dihydro-2H-pyrimidin-1-yl)-tetrahydro-furan-2-ylmethyl ester (R)-2-decyloxy-3-dodecylsulfanyl-propyl ester], the “Selectivity Index” value with HIV-1 virus strain 20678 is on record as 3.5. The EC50 is 294 nM with HIV-1 virus strain 20678 and 504 nM in the data set on HIV-1 virus strain JR-FL. The results for the GI50 with Diff.CD34+ (setting [2]), in the data set with Diff.CD34+ (setting [3]) and with Diff.CD34+ (setting [4]) were 0.85 µM, 1.2 µM and 1.03 µM, respectively.

`CCCCCCCCCCCCSCC(COP(=O)(O)OC[C@H]1O[C@@H](n2cc(C)c(=O)[nH]c2=O)C[C@@H]1N=[N+]=[N-])OCCCCCCCCCC` (stereo partly drawn) [FOZ ISO 850 Na, Phosphoric Acid (2S,3S,5R)-3-azido-5-(5-methyl-2,4-dioxo-3,4-dihydro-2H-pyrimidin-1-yl)-tetrahydro-furan-2-ylmethyl ester 2-decyloxy-3-dodecylsulfanyl-propyl ester]: in the data set with HIV-1 virus strain 20678, the “Selectivity Index” value was determined as 14.3. Further, the concentration for 50% growth inhibition (GI50) at 7 d in data set [1] (setting [2]) and in data set [1] (setting [4]) was 4 µM in each case. In the data set with Diff.CD34+ (setting [3]), the 50% growth inhibitory concentration (GI50) was more than 10 µM.

In the case of `Cc1cn([C@H]2C[C@H](N=[N+]=[N-])[C@@H](CO)O2)c(=O)[nH]c1=O` [AZT, 3′-azido-3′-deoxythymidine, reference compound], the “Selectivity Index” value in the data set with HIV-1 virus strain 20678 is 1.8. In addition, the results for the EC50 in the data set on HIV-1 virus strain 20678 and with HIV-1 virus strain JR-FL were 76 nM and 89.8 nM, respectively. Also, the GI50 at 7 d turned out to be 0.07 µM in data set [1] (setting [2]), 0.2 µM in data set [1] (setting [3]) and 0.14 µM in data set [1] (setting [4]).

Regarding `CCCCCCCCCCCCSC[C@@H](COP(=O)(O)OC[C@H]1O[C@@H](n2cc(C)c(=O)[nH]c2=O)C[C@@H]1N=[N+]=[N-])OCCCCCCCCCC` [FOZ ISO 851 Na, Phosphoric Acid (2S,3S,5R)-3-azido-5-(5-methyl-2,4-dioxo-3,4-dihydro-2H-pyrimidin-1-yl)-tetrahydro-furan-2-ylmethyl ester (R)-2-decyloxy-3-dodecylsulfanyl-propyl ester], in the data set on HIV-1 virus strain 20678, the “Selectivity Index” value worked out at 4.5. Moreover, the GI50 with Diff.CD34+ (setting [2]) was 2.2 µM; in the data set on Diff.CD34+ (setting [3]) it was more than 10 µM; in the data set on Diff.CD34+ (setting [4]), 2.2 µM.

As for `CCCCCCCCCCCCSCC(COP(=O)(O)OC[C@H]1O[C@@H](n2cc(C)c(=O)[nH]c2=O)C[C@@H]1N=[N+]=[N-])OCCCCCCCCCC` (stereo partly drawn) [FOZ ISO 850, Phosphoric Acid (2S,3S,5R)-3-azido-5-(5-methyl-2,4-dioxo-3,4-dihydro-2H-pyrimidin-1-yl)-tetrahydro-furan-2-ylmethyl ester 2-decyloxy-3-dodecylsulfanyl-propyl ester], in the data set with HIV-1 virus strain 20678, the “Selectivity Index” value came to 11.06. For the same compound, the EC50 came out at 279 nM in the data set with HIV-1 virus strain 20678 and 474 nM with HIV-1 virus strain JR-FL. The figures for the GI50 with Diff.CD34+ (setting [2]), in the data set with Diff.CD34+ (setting [3]) and in the data set with Diff.CD34+ (setting [4]) were 2.2 µM, 4 µM and 3.09 µM, respectively.
